Assays:
[1] = refractive index (Na D-line) (dimensionless); xn = mol fraction of the nth substance listed; conditions: 99 kPa, Liquid, Abbe refractometer
[2] = relative permittivity at various frequencies (dimensionless); xn = mol fraction of the nth substance listed; conditions: 99 kPa, Liquid, Frequency=2 MHz, Parallel plate capacitor

CC(C)CCl [1-chloro-2-methylpropane] + CCCCCC
Conditions | refractive index, 283.15 K | refractive index, 298.15 K | refractive index, 313.15 K | relative permittivity, 283.15 K | relative permittivity, 298.15 K | relative permittivity, 313.15 K
[1], x2 = 0 | 1.40354 | 1.39529 | 1.38683 | – | – | –
[1], x2 = 0.0484 | 1.40197 | 1.39371 | 1.38526 | – | – | –
[1], x2 = 0.0984 | 1.40039 | 1.39212 | 1.38366 | – | – | –
[1], x2 = 0.2052 | 1.39725 | 1.38895 | 1.38049 | – | – | –
[1], x2 = 0.3044 | 1.39452 | 1.3862 | 1.37775 | – | – | –
[1], x2 = 0.4034 | 1.39199 | 1.38367 | 1.37523 | – | – | –
[1], x2 = 0.5052 | 1.38961 | 1.3813 | 1.37287 | – | – | –
[1], x2 = 0.6134 | 1.38726 | 1.37897 | 1.37057 | – | – | –
[1], x2 = 0.7019 | 1.38551 | 1.37722 | 1.36883 | – | – | –
[1], x2 = 0.8082 | 1.38355 | 1.37526 | 1.3669 | – | – | –
[1], x2 = 0.908 | 1.38189 | 1.3736 | 1.36525 | – | – | –
[1], x2 = 0.9475 | 1.38129 | 1.37301 | 1.36468 | – | – | –
[2], x2 = 0 | – | – | – | 7.472 | 7.074 | 6.657
[2], x2 = 0.0482 | – | – | – | 7.14 | 6.773 | 6.385
[2], x2 = 0.1006 | – | – | – | 6.784 | 6.442 | 6.082
[2], x2 = 0.1985 | – | – | – | 6.106 | 5.816 | 5.506
[2], x2 = 0.2966 | – | – | – | 5.432 | 5.191 | 4.929
[2], x2 = 0.3985 | – | – | – | 4.768 | 4.573 | 4.358
[2], x2 = 0.5036 | – | – | – | 4.142 | 3.991 | 3.82
[2], x2 = 0.5998 | – | – | – | 3.626 | 3.513 | 3.38
[2], x2 = 0.6993 | – | – | – | 3.149 | 3.064 | 2.966
[2], x2 = 0.8028 | – | – | – | 2.707 | 2.648 | 2.579
[2], x2 = 0.9002 | – | – | – | 2.315 | 2.278 | 2.232
[2], x2 = 0.9462 | – | – | – | 2.129 | 2.102 | 2.068

Source: the NIST ThermoML archive (doi:10.1016/j.jct.2015.03.001)
